{"source": "patent US20100273876A1", "about": "“ANTIBACTERIAL FORMULATION COMPRISING A DIALKYL SULPHOSUCCINATE AND A CARBANILIDE ANTIBACTERIAL AGENT” (priority 2007, published 2010)", "key": {"C. xerosis NCTC 11861": {"tested_on": "C. xerosis NCTC 11861", "test": "(S)DDA disc diffusion", "assay_type": "cell-based, Corynebacterium xerosis", "settings": "for DDA: 200 μg per disc", "protocol": "Several Corynebacterium test species were also used in this study, namely C. mucifaciens ATCC 700355, C. striatum NCTC 764, C. xerosis NCTC 11861 and C. jeikeium NCTC 11915. These Gram-positive pathogens are closely related to organisms (aerobic diphtheroids of the genus Corynebacterium) that cause body odour. C. mucifaciens and C. striatum were cultured and maintained on Mueller-Hinton Medium (agar and broth) and were incubated aerobically at 37° C. for 24 hours. C. xerosis and C. jeikeium were cultured and maintained on Mueller-Hinton Medium containing 5% (v/v) lysed horse blood (agar and broth) and were incubated aerobically at 37° C. for 72 hours. A sterile paper disc was impregnated with a sample of the test compound in a suitable solvent and 30 minutes allowed for the solvents to evaporate (where possible). The disc was then placed on an agar plate onto which the test micro-organism had been inoculated. The plate was then incubated under the conditions described above, following which it was examined visually for signs of microbial growth. If the test compound had antimicrobial activity, a circular zone of no growth would be obtained around the disc. The diameter of this zone of “inhibition” was measured using a ProtoCOL™ automated zone sizer (Synbiosis, Cambridge, UK). In general, a greater diameter and/or area of the zone of inhibition indicates a greater antimicrobial activity in the relevant test compound, although other factors such as test compound mobility through the agar gel may also influence the result. Two test a compounds A and B were placed on a single paper disc and the above described DDA procedure repeated. An increase in diameter of the zone of inhibition, compared to the greater of the zone diameters for the two compounds individually, was taken to indicate potential antimicrobial synergy. In practical terms, an increase of greater than 5 mm could be treated as significant. The activities of DOSS and TCC were determined, using (S)DDAs, against the test organisms C. mucifaciens ATCC 700355, C. striatum NCTC 764, C. xerosis NCTC 11861 and C. jeikeium NCTC 11915. 200 μg of the DOSS and/or the TCC were loaded onto each disc. All the experiments were conducted in triplicate."}, "P. acnes PRP-004": {"tested_on": "P. acnes PRP-004", "test": "(S)DDA disc diffusion", "assay_type": "cell-based, Propionibacterium acnes", "protocol": "(§1) The propionibacteria were cultured and maintained on Wilkins-Chalgren Anaerobe Medium (agar and broth) at pH 6.0; all cultures were incubated anaerobically at 37° C. for 72 hours.\n(§2) A sterile paper disc was impregnated with a sample of the test compound in a suitable solvent and 30 minutes allowed for the solvents to evaporate (where possible). The disc was then placed on an agar plate onto which the test micro-organism had been inoculated. The plate was then incubated under the conditions described above, following which it was examined visually for signs of microbial growth. If the test compound had antimicrobial activity, a circular zone of no growth would be obtained around the disc. The diameter of this zone of “inhibition” was measured using a ProtoCOL™ automated zone sizer (Synbiosis, Cambridge, UK). In general, a greater diameter and/or area of the zone of inhibition indicates a greater antimicrobial activity in the relevant test compound, although other factors such as test compound mobility through the agar gel may also influence the result.\n(§3) Two test a compounds A and B were placed on a single paper disc and the above described DDA procedure repeated. An increase in diameter of the zone of inhibition, compared to the greater of the zone diameters for the two compounds individually, was taken to indicate potential antimicrobial synergy. In practical terms, an increase of greater than 5 mm could be treated as significant.\n(§4) Both the DDA and the SDDA test may be carried out using an agar gel supplemented with lipid and/or salt to simulate some of the major components present in human skin and to assess whether these substances might reduce the antimicrobial activity observed for the test compound. Performance under these conditions can provide a more reliable indication of activity on topical application. The supplements used in Examples 1, 11, 12 and 13 below were lipid (either Tween™ 80 at 1% v/v (Example 1) or triolein at 1% v/v (Examples 11, 12 and 13) and sodium chloride (100 mM)."}, "P. acnes PRP-026": {"tested_on": "P. acnes PRP-026", "test": "(S)DDA disc diffusion", "assay_type": "cell-based, Propionibacterium acnes", "protocol": "as §1, §2, §3, §4"}, "P. acnes PRP-101": {"tested_on": "P. acnes PRP-101", "test": "(S)DDA disc diffusion", "assay_type": "cell-based, Propionibacterium acnes", "protocol": "as §1, §2, §3, §4"}, "P. acnes PRP-007": {"tested_on": "P. acnes PRP-007", "test": "(S)DDA disc diffusion", "assay_type": "cell-based, Propionibacterium acnes", "protocol": "as §1, §2, §3, §4"}, "P. acnes PRP-017": {"tested_on": "P. acnes PRP-017", "test": "(S)DDA disc diffusion", "assay_type": "cell-based, Propionibacterium acnes", "protocol": "as §1, §2, §3, §4"}, "P. acnes PRP-046": {"tested_on": "P. acnes PRP-046", "test": "(S)DDA disc diffusion", "assay_type": "cell-based, Propionibacterium acnes", "protocol": "as §1, §2, §3, §4"}, "P. acnes PRP-039": {"tested_on": "P. acnes PRP-039", "test": "(S)DDA disc diffusion", "assay_type": "cell-based, Propionibacterium acnes", "settings": "for DDA: P. acnes PRP-039 (Tet/MLS), 200 μg TCC or 50 μg DOSS per disc", "protocol": "as §1, §2, §3, §4"}, "P. acnes NCTC 737": {"tested_on": "P. acnes NCTC 737", "test": "Well diffusion assay", "assay_type": "cell-based, Propionibacterium acnes", "settings": "gel (Solutol HS 15, ethanol, hydroxyethyl cellulose, water) with 5% w/w DOSS and/or 0.2% w/w TCC, diluted 1:2 with placebo gel", "protocol": "The propionibacteria were cultured and maintained on Wilkins-Chalgren Anaerobe Medium (agar and broth) at pH 6.0; all cultures were incubated anaerobically at 37° C. for 72 hours. A hole with a diameter of 8 mm was bored into the centre of an agar plate inoculated (swabbed) with the test-microorganism using a sterile “cork” borer (size No. 4). A volume (100 μl unless stated otherwise) of the test compound(s), either formulated or in a suitable solvent, was then placed into the bored hole. The plate was incubated under the conditions described above, following which it was examined visually for signs of microbial growth. If the test compound had antimicrobial activity, a circular zone of no growth would be obtained around the bored hole. The diameter of this zone of “inhibition” was measured using a ProtoCOL™ automated zone sizer (Synbiosis, Cambridge, UK). In general, a greater diameter and/or area of the zone of inhibition indicates a greater antimicrobial activity in the relevant test compound, although other factors such as test compound mobility through the agar gel, and the extent to which a compound is released from a formulation, may also influence the result."}, "[1]": {"settings": "P. acnes PRP-004 (Tet), 200 μg TCC or 50 μg DOSS per disc"}, "[2]": {"settings": "P. acnes PRP-026 (MLS), 200 μg TCC or 50 μg DOSS per disc"}, "[3]": {"settings": "P. acnes PRP-101 (Tet/MLS), 200 μg TCC or 50 μg DOSS per disc"}, "[4]": {"settings": "P. acnes PRP-007 (Clin), 200 μg TCC or 50 μg DOSS per disc"}, "[5]": {"settings": "P. acnes PRP-017 (MLS), 200 μg TCC or 50 μg DOSS per disc"}, "[6]": {"settings": "P. acnes PRP-046 (resistance None), 200 μg TCC or 50 μg DOSS per disc"}}}
{"molecule": "O=C(Nc1ccc(Cl)cc1)Nc1ccc(Cl)c(Cl)c1", "note": "[TCC, N-(4-chlorophenyl)-N′-(3,4-dichlorophenyl) urea]", "values": [{"measurement": "DDA", "setting": "C. xerosis NCTC 11861", "value": 11.65, "unit": "mm"}, {"measurement": "DDA", "setting": "P. acnes PRP-004; [1]", "value": 15.42, "unit": "mm"}, {"measurement": "DDA", "setting": "P. acnes PRP-026; [2]", "value": 22.71, "unit": "mm"}, {"measurement": "DDA", "setting": "P. acnes PRP-101; [3]", "value": 16.75, "unit": "mm"}, {"measurement": "DDA", "setting": "P. acnes PRP-007; [4]", "value": 13.87, "unit": "mm"}, {"measurement": "DDA", "setting": "P. acnes PRP-017; [5]", "value": 18.81, "unit": "mm"}, {"measurement": "DDA", "setting": "P. acnes PRP-046; [6]", "value": 20.25, "unit": "mm"}, {"measurement": "DDA", "setting": "P. acnes PRP-039", "value": 18.91, "unit": "mm"}, {"measurement": "(S)DDA", "setting": "P. acnes NCTC 737", "value": 0, "unit": "mm"}]}
{"molecule": "dioctyl sodium sulphosuccinate [DOSS]", "values": [{"measurement": "SDDA area increase", "setting": "C. xerosis NCTC 11861", "value": 145.4, "unit": "%"}, {"measurement": "SDDA increase", "setting": "C. xerosis NCTC 11861", "value": 6.6, "unit": "mm"}, {"measurement": "SDDA with TCC", "setting": "C. xerosis NCTC 11861; 200 μg DOSS + 200 μg TCC on one disc", "value": 18.25, "unit": "mm"}, {"measurement": "DDA", "setting": "C. xerosis NCTC 11861", "value": 0.0, "unit": "mm"}, {"measurement": "DDA", "setting": "P. acnes PRP-004; [1]", "value": 26.62, "unit": "mm"}, {"measurement": "DDA", "setting": "P. acnes PRP-004; P. acnes PRP-004, 200 μg per disc", "value": 48.56, "unit": "mm"}, {"measurement": "DDA + salt", "setting": "P. acnes PRP-004; P. acnes PRP-004, 200 μg per disc, sodium chloride 100 mM", "value": 43.27, "unit": "mm"}, {"measurement": "DDA + lipid", "setting": "P. acnes PRP-004; P. acnes PRP-004, 200 μg per disc, triolein 1% v/v", "value": 46.07, "unit": "mm"}, {"measurement": "DDA", "setting": "P. acnes PRP-026; [2]", "value": 28.26, "unit": "mm"}, {"measurement": "DDA", "setting": "P. acnes PRP-026; P. acnes PRP-026, 200 μg per disc", "value": 49.81, "unit": "mm"}, {"measurement": "DDA + salt", "setting": "P. acnes PRP-026; P. acnes PRP-026, 200 μg per disc, sodium chloride 100 mM", "value": 48.25, "unit": "mm"}, {"measurement": "DDA + lipid", "setting": "P. acnes PRP-026; P. acnes PRP-026, 200 μg per disc, triolein 1% v/v", "value": 43.89, "unit": "mm"}, {"measurement": "DDA", "setting": "P. acnes PRP-101; [3]", "value": 14.59, "unit": "mm"}, {"measurement": "DDA", "setting": "P. acnes PRP-101; P. acnes PRP-101, 200 μg per disc", "value": 41.40, "unit": "mm"}, {"measurement": "DDA + lipid", "setting": "P. acnes PRP-101; P. acnes PRP-101, 200 μg per disc, triolein 1% v/v", "value": 40.47, "unit": "mm"}, {"measurement": "DDA", "setting": "P. acnes PRP-007; [4]", "value": 21.38, "unit": "mm"}, {"measurement": "DDA", "setting": "P. acnes PRP-007; P. acnes PRP-007, 200 μg per disc", "value": 47.32, "unit": "mm"}, {"measurement": "DDA + salt", "setting": "P. acnes PRP-007; P. acnes PRP-007, 200 μg per disc, sodium chloride 100 mM", "value": 42.96, "unit": "mm"}, {"measurement": "DDA + lipid", "setting": "P. acnes PRP-007; P. acnes PRP-007, 200 μg per disc, triolein 1% v/v", "value": 44.82, "unit": "mm"}, {"measurement": "DDA", "setting": "P. acnes PRP-017; [5]", "value": 28.98, "unit": "mm"}, {"measurement": "DDA", "setting": "P. acnes PRP-017; P. acnes PRP-017, 200 μg per disc", "value": 47.94, "unit": "mm"}, {"measurement": "DDA + salt", "setting": "P. acnes PRP-017; P. acnes PRP-017, 200 μg per disc, sodium chloride 100 mM", "value": 47.63, "unit": "mm"}, {"measurement": "DDA + lipid", "setting": "P. acnes PRP-017; P. acnes PRP-017, 200 μg per disc, triolein 1% v/v", "value": 44.82, "unit": "mm"}, {"measurement": "DDA", "setting": "P. acnes PRP-046; [6]", "value": 25.08, "unit": "mm"}, {"measurement": "DDA", "setting": "P. acnes PRP-046; P. acnes PRP-046, 200 μg per disc", "value": 44.51, "unit": "mm"}, {"measurement": "DDA + salt", "setting": "P. acnes PRP-046; P. acnes PRP-046, 200 μg per disc, sodium chloride 100 mM", "value": 47.00, "unit": "mm"}, {"measurement": "DDA + lipid", "setting": "P. acnes PRP-046; P. acnes PRP-046, 200 μg per disc, triolein 1% v/v", "value": 41.09, "unit": "mm"}, {"measurement": "DDA", "setting": "P. acnes PRP-039", "value": 23.02, "unit": "mm"}, {"measurement": "DDA + salt", "setting": "P. acnes PRP-039; P. acnes PRP-039, 200 μg per disc, sodium chloride 100 mM", "value": 46.38, "unit": "mm"}, {"measurement": "(S)DDA", "setting": "P. acnes NCTC 737", "value": 42.40, "unit": "mm"}]}
